Laboratory results published in patent US12642270B2, “Substituted thiophene carboxamides, thiophene carboxylic acids and derivatives thereof” (Bayer Aktiengesellschaft, priority 2019, dated 2026).

Test: Log P by HPLC on reversed phase columns (EEC directive 79/831 Annex V.A8)
Assay type: physicochemical
Details: method [a]
How it was run: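 Values come from retention times calibrated against alkan-2-ones (3–16 carbons) by linear interpolation, using reversed-phase LC-UV per EEC directive 79/831 Annex V.A8. Acetonitrile gradient 10–95% with 0.1% formic acid [a], 0.001 M ammonium acetate [b] or 0.1% phosphoric acid [c]; several values within one method separated by "+".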

LogP | SMILES
3.26^[a] | COC(=O)C(CCSC)NC(=O)c1sc(C#N)c(Cl)c1Cl (centres unmarked) [1.0791]
2.80^[a] | CCOC(=O)C(COC)NC(=O)c1sc(C#N)c(Br)c1C (centres unmarked) [1.0792]
2.54^[a] | CCOC(=O)CNC(=O)c1sc(C)c(Cl)c1F [1.0793]
3.51^[a] | CCOC(=O)C(CCSC)NC(=O)c1sc(Br)c(Br)c1C#N (centres unmarked) [1.0794]
1.48^[a] | N#Cc1sc(C(=O)NCC(N)=O)c(Cl)c1Cl [1.0796]
2.59^[a] | CCOC(=O)CNC(=O)c1sc(Br)c(Br)c1C#N [1.0797]
2.29^[a] | CCOC(=O)C(CO)NC(=O)c1sc(Br)c(Br)c1C#N (centres unmarked) [1.0803]
3.39^[a] | CCOC(=O)C(NC(=O)c1sc(Br)c(Br)c1C#N)C(=O)OCC [1.0805]
2.33^[a] | CCOC(=O)C(CO)NC(=O)c1sc(C#N)c(Cl)c1Cl (centres unmarked) [1.0809]
2.23^[a] | CCOC(=O)C(CO)NC(=O)c1sc(Cl)c(Cl)c1C#N (centres unmarked) [1.0810]
4.05^[a] | CCOC(=O)C(CCSC)NC(=O)c1sc(Br)c(Br)c1F (centres unmarked) [1.0812]
3.60^[a] | CCOC(=O)C(CCSC)NC(=O)c1sc(C#N)c(Cl)c1Cl (centres unmarked) [1.0813]
3.46^[a] | CCOC(=O)C(CCSC)NC(=O)c1sc(Cl)c(Cl)c1C#N (centres unmarked) [1.0814]
2.84^[a] | CCOC(=O)[C@H](CO)NC(=O)c1sc(Cl)c(Cl)c1Br [1.0816]
2.84^[a] | CCOC(=O)[C@H](CO)NC(=O)c1sc(Br)c(Br)c1Cl [1.0817]
2.80^[a] | CCOC(=O)C(C)NC(=O)c1sc(C#N)c(Br)c1C (centres unmarked) [1.0823]
4.01^[a] | CCOC(=O)C(C)NC(=O)c1sc(Br)c(Br)c1Cl (centres unmarked) [1.0824]
3.24^[a] | CCOC(=O)CNC(=O)c1sc(I)c(Cl)c1Cl [1.0827]

LogP | SMILES
2.22^[a] | CCOC(=O)[C@H](CO)NC(=O)c1sc(Cl)c(Cl)c1C#N [1.0830]
2.26^[a] | CCOC(=O)[C@H](CO)NC(=O)c1sc(C#N)c(Cl)c1Cl [1.0831]
2.54^[a] | CCOC(=O)[C@H](CO)NC(=O)c1sc(Br)c(Br)c1F [1.0832]
2.07^[a] | CCOC(=O)[C@H](CO)NC(=O)c1sc(C#N)c(Cl)c1C [1.0833]
2.16^[a] | CCOC(=O)C(CO)NC(=O)c1sc(C#N)c(Br)c1C (centres unmarked) [1.0834]
2.12^[a] | CCOC(=O)C(CO)NC(=O)c1sc(C#N)c(Cl)c1C (centres unmarked) [1.0835]
3.03^[a] | COC(=O)C(CCSC)NC(=O)c1sc(C#N)c(Cl)c1C (centres unmarked) [1.0836]
4.55^[a] | CCOC(=O)C(CCSC)NC(=O)c1sc(Br)c(Cl)c1Br (centres unmarked) [1.0838]
2.59^[a] | CCOC(=O)[C@H](CO)NC(=O)c1sc(Br)c(Cl)c1C [1.0841]
2.62^[a] | CCOC(=O)[C@H](CO)NC(=O)c1sc(Cl)c(Br)c1C [1.0842]
2.64^[a] | CCOC(=O)[C@H](CO)NC(=O)c1sc(Br)c(Br)c1C [1.0843]
2.60^[a] | CCOC(=O)C(CO)NC(=O)c1sc(Br)c(Cl)c1C (centres unmarked) [1.0844]
3.06^[a] | CCOC(=O)CN(OC)C(=O)c1sc(C#N)c(Cl)c1Cl [1.0845]
2.11^[a] | CCOC(=O)[C@H](CO)NC(=O)c1sc(C#N)c(Br)c1C [1.0846]
2.89^[a] | CCOC(=O)C(CO)NC(=O)c1sc(Br)c(Cl)c1Br (centres unmarked) [1.0847]
2.82^[a] | CCOC(=O)CNC(=O)c1sc(C)c(Cl)c1Cl [1.0848]
2.92^[a] | COC(=O)CNC(=S)c1sc(C#N)c(Br)c1C [1.0864]
3.30^[a] | CCOC(=O)CNC(=S)c1sc(C#N)c(Br)c1C [1.0877]

More lines, now with the values behind:

SMILES | LogP
CCOC(=O)C1(NC(=O)c2sc(Br)c(Br)c2F)CSC1 [1.0795] | 3.59^[a]
COC(=O)CNC(=O)c1sc(Br)c(Br)c1C#N [1.0798] | 2.24^[a]
CCOC(=O)C1(NC(=O)c2sc(Br)c(Br)c2C#N)CC1 [1.0799] | 2.73^[a]
COC(=O)C1(NC(=O)c2sc(Br)c(Br)c2C#N)CC1 [1.0800] | 2.40^[a]
COC(=O)C(C)(C)NC(=O)c1sc(Br)c(Br)c1C#N [1.0801] | 2.81^[a]
N#CCNC(=O)c1sc(Br)c(Br)c1C#N [1.0802] | 2.11^[a]
CCOC(=O)CN(OC)C(=O)c1sc(Br)c(Br)c1Cl [1.0804] | 3.67^[a]
COC(=O)C1(NC(=O)c2sc(Br)c(Br)c2C#N)CCC1 [1.0806] | 2.87^[a]
N#Cc1c(C(=O)NC2(C(N)=O)CC2)sc(Cl)c1Cl [1.0807] | 1.71^[a]
CCOC(=O)C1(NC(=O)c2sc(Br)c(Br)c2C#N)CCC1 [1.0815] | 3.23^[a]
COC(=O)CNC(=O)c1sc(I)c(Cl)c1Cl [1.0826] | 2.82^[a]
COC(=O)C1(NC(=O)c2sc(I)c(Cl)c2Cl)CC1 [1.0828] | 3.01^[a]
N#CCNC(=O)c1sc(Br)c(Cl)c1Br [1.0837] | 2.75^[a]
COC(=O)C(C)(C)NC(=O)c1sc(Br)c(Cl)c1Br [1.0840] | 3.81^[a]
COC(=O)C1(NC(=O)c2sc(Br)c(Br)c2Cl)CCC1 [1.0849] | 3.75^[a]
N#CCNC(=O)c1sc(Br)c(Br)c1Cl [1.0850] | 2.67^[a]
COC(=O)CNC(=S)c1sc(Cl)c(Cl)c1Br [1.0851] | 4.09^[a]
COC(=O)CNC(=S)c1sc(Br)c(Br)c1Cl [1.0852] | 4.07^[a]
CCOC(=O)C1(NC(=S)c2sc(Cl)c(Br)c2Cl)CCC1 [1.0853] | 5.04^[a]
O=C(O)CNC(=S)c1sc(Cl)c(Cl)c1Br [1.0854] | 3.11^[a]
C#CCOC(=O)CNC(=O)c1sc(Br)c(Br)c1F [1.0855] | 2.87^[a]
O=C(CNC(=O)c1sc(Br)c(Br)c1F)OC1CC1 [1.0856] | 3.02^[a]
C=CCOC(=O)CNC(=O)c1sc(Br)c(Br)c1F [1.0857] | 3.13^[a]

SMILES | LogP
N#CCCOC(=O)CNC(=O)c1sc(Br)c(Br)c1F [1.0858] | 2.48^[a]
O=C(CNC(=O)c1sc(Br)c(Br)c1F)OCC1CC1 [1.0859] | 3.39^[a]
CCCCOC(=O)CNC(=O)c1sc(Br)c(Br)c1F [1.0860] | 3.79^[a]
O=C(O)CNC(=S)c1sc(Br)c(Br)c1Cl [1.0861] | 3.08^[a]
O=C(CNC(=O)c1sc(Br)c(Br)c1F)OC1CCCC1 [1.0862] | 3.84^[a]
O=C(CNC(=O)c1sc(Br)c(Br)c1F)Oc1ccccc1 [1.0863] | 3.58^[a]
CCOC(=O)C(NC(=S)c1sc(Br)c(Br)c1F)C1CC1 (centres unmarked) [1.0865] | 4.99^[a]
N#CC1(NC(=O)c2sc(Br)c(Br)c2Cl)CCSCC1 [1.0868] | 3.71^[a]
N#CC1(NC(=O)c2sc(Br)c(Br)c2F)CCSCC1 [1.0871] | 3.40^[a]
CC(C#N)(NC(=O)c1sc(Br)c(Br)c1F)C1CC1 (centres unmarked) [1.0872] | 3.47^[a]
N#CC1(NC(=O)c2sc(Br)c(Br)c2Cl)CCC1 [1.0873] | 3.35^[a]
CC(C)C(C#N)NC(=O)c1sc(Br)c(Br)c1Cl (centres unmarked) [1.0874] | 3.88^[a]
O=C(O)CNC(=O)c1sc(Cl)c(Br)c1Cl [1.0875] | 2.18^[a]
O=C(O)C(Cc1ccccc1)NC(=S)c1sc(Br)c(Br)c1F (centres unmarked) [1.0876] | 4.17^[a]
COC(=O)CNC(=S)c1cc(Br)c(Cl)s1 [1.0878] | 3.35^[a]
CCCOC(=O)C1(NC(=O)c2sc(Cl)c(Cl)c2Br)CCC1 [1.0879] | 4.74^[a]
O=C(NC1(C(=O)OC2CCCCC2)CCC1)c1sc(Cl)c(Cl)c1Br [1.0880] | 5.89^[a]
NC(=S)C1(NC(=O)c2sc(Cl)c(Cl)c2Br)CC1 [1.0881] | 2.77^[a]
CNC(=O)C1(NC(=O)c2sc(Cl)c(Cl)c2Br)CC1 [1.0882] | 2.28^[a]
O=C(CNC(=O)c1sc(Br)c(Br)c1Cl)OC1CCOCC1 [1.0883] | 3.14^[a]
CC(C)(C)OC(=O)C(NC(=O)c1sc(Br)c(Br)c1Cl)C1CC1 (centres unmarked) [1.0884] | 5.36^[a]
O=C(NC(C(=O)OC1CCC1)C1CC1)c1sc(Br)c(Br)c1Cl (centres unmarked) [1.0885] | 5.08^[a]

Same assay, conditions: method marked [a]

LogP | SMILES
3.20^[a] | CCOC(=O)C(NC(=O)c1sc(C#N)c(Cl)c1C)C(=O)OCC [1.0771]
3.91^[a] | CCOC(=O)C(NC(=O)c1sc(Br)c(Br)c1F)C(=O)OCC [1.0772]
3.23^[a] | CCOC(=O)C(NC(=O)c1sc(C#N)c(Br)c1C)C(=O)OCC [1.0773]
3.40^[a] | CCOC(=O)C(NC(=O)c1sc(Cl)c(Cl)c1C#N)C(=O)OCC [1.0774]
4.30^[a] | CCOC(=O)C(NC(=O)c1sc(Cl)c(Cl)c1Br)C(=O)OCC [1.0775]
3.91^[a] | CCOC(=O)C(COC)NC(=O)c1sc(Br)c(Br)c1Cl (centres unmarked) [1.0776]
3.94^[a] | CCOC(=O)C(COC)NC(=O)c1sc(Cl)c(Cl)c1Br (centres unmarked) [1.0777]
2.89^[a] | CCOC(=O)C(CO)NC(=O)c1sc(Br)c(Br)c1Cl (centres unmarked) [1.0779]
3.06^[a] | CCOC(=O)C(CO)NC(=O)c1sc(Cl)c(Cl)c1Br (centres unmarked) [1.0780]
3.40^[a] | CCOC(=O)CNC(=O)c1sc(Br)c(Cl)c1Br [1.0781]
4.33^[a] | CCOC(=O)C(NC(=O)c1sc(Br)c(Br)c1Cl)C(=O)OCC [1.0783]
2.73^[a] | C#CCOC(=O)C1(NC(=O)c2sc(C#N)c(Cl)c2Cl)CC1 [1.0784]
1.67^[a] | N#Cc1sc(C(=O)NC2(C(N)=O)CC2)c(Cl)c1Cl [1.0788]
1.61^[a] | Cc1c(C(=O)NC2(C(N)=O)CC2)sc(C#N)c1Br [1.0789]

The next lines start with the compound.

SMILES | LogP
COC(=O)C(CCSC)NC(=O)c1sc(Br)c(Br)c1C#N (centres unmarked) [1.0778] | 3.37^[a]
CCOC(=O)C1(NC(=O)c2sc(Br)c(Cl)c2Br)CC1 [1.0782] | 3.56^[a]
C#CCOC(=O)C1(NC(=O)c2sc(Cl)c(Cl)c2C#N)CC1 [1.0785] | 2.65^[a]
NC(=O)C1(NC(=O)c2sc(Cl)c(Cl)c2Br)CC1 [1.0786] | 2.08^[a]
NC(=O)C1(NC(=O)c2sc(Br)c(Br)c2Cl)CC1 [1.0787] | 2.10^[a]
CCOC(=O)CN(OC)C(=O)c1sc(Cl)c(Cl)c1Br [1.0790] | 3.71^[a]
